# Measurements: patent publication US7713986B2, “Compounds and methods for treatment of chemotherapy-induced anemia” (priority 2006, dated 2010)
# What was measured:
# [1] = Body weight of H-460 tumor-bearing nude mice given chemotherapeutic agent with or without Compound A; assay type: in vivo, female Harlan nude mice
# Experimental: To examine the effects of compounds and methods of the present invention on weight loss associated with chemotherapeutic agents, the following study was performed. This experiment was carried out essentially as described above in Example 2. […] Cages, food, and bedding were autoclaved. Animal diets were obtained from Harlan Teklad (Madison, Wis.).
# Body weights were monitored over time for individual animals. Changes in individual animal body weights over time are shown in FIGS. 3-8, and are presented as percent of initial body weight (treatment day 1), which was set at 100%.
# [2] = system: female Harlan nude mice implanted with H460 tumor cells; test: H-460 tumor-bearing nude mice given chemotherapeutic agent with or without Compound A: premature morbidity and hematocrit
# Experimental: To examine the effect of methods and compounds of the present invention on treatment of chemotherapy-induced anemia, the following study was performed. The human H-460 lung cancer cell line used was obtained from the National Cancer Institute. (Brower et al., (1986) Cancer Res 46:798-806.) Animals were maintained in a HEPA-filtered environment during the experimental period. Cages, food, and bedding were autoclaved. Animal diets were obtained from Harlan Teklad (Madison, Wis.). Hydrochloric acid, 0.15% (v/v), was added to the drinking water.
# Compounds of the invention were pre-formulated in an aqueous vehicle consisting of 0.1% (w/w) Polysorbate 80 (JT Baker) and 0.5% (w/w) high viscosity carboxymethyl cellulose sodium (Spectrum) to achieve a final 10 ml/kg dosing (oral gavage).
# A stock tumor was established by subcutaneously injecting a cell suspension into nude mice. The resulting tumor was maintained in nude mice subcutaneously as tumor stock prior to use. Tumor implantation was performed when the stock tumors were in log phase of growth. Before implantation, tumor tissue was harvested from stock mice and placed in RPMI-1640 medium. Necrotic tissues were dissected away and viable tissues were cut into 1-2 mm^2 pieces. In these experiments, 1×10^7H460 tumor cells were implanted subcutaneously to the flanks of female Harlan nude mice.
# Treatment (administration of compounds of the present invention) was initiated when the inoculated tumors reached approximately 100 mm^3, and continued for four weeks.
# These studies followed the guidelines of the Tumor Growth Delay (TGD) type, using a protocol that required individual animals to be humanely euthanized after reaching a set endpoint of tumor volume greater than or equal to 2 cc. At this endpoint, blood was also sampled and hematocrit (HCT) was determined.
# These two chemotherapeutic are representative of two broad classes of conventional anti-tumor therapeutics: microtubule poisons (Paclitaxcel); and DNA-directed agents, including the sub-classification of DNA alkylating agents (Carboplatin). […]
# [3] = system: animal model of chemotherapy-induced anemia; assay type: in vivo, Sprague Dawley male rats
# Experimental: Fifteen Sprague Dawley male rats (280-300 g) were obtained from Charles River Laboratories. On day 0, rats were treated by intraperitoneal (i.p.) injection with a single dose of saline (control; n=3) at 8 ml/kg, or Cisplatin (CP; Bedford Laboratories, Bedford Ohio) at either 7 mg/kg (7 ml/kg; n=6) or 10 mg/kg (10 ml/kg; n=6). Blood samples (0.2 ml) were collected on days 5, 9, and 16 as follows. Animals were anesthetized with isoflurane and 0.2 ml of blood was collected from the tail vein into a MICROTAINER EDTA-2K tube (Becton-Dickinson). Blood samples were processed for hematocrit as described above to determine the degree of anemia produced in each animal.
# Beginning on day 19 of the study, one half of each cisplatin-treated group (n=3×2) and all of the control group were treated by oral gavage once per day for 5 consecutive days with a 2 ml/kg volume of 0.5% CMC (Sigma-Aldrich). […] Blood samples (0.5 ml) were collected as described above immediately prior to treatment and 4 days after treatment initiation. Blood samples were analyzed for CBC and reticulocyte counts as described above. On day 9 after initiation of oral treatment, a blood sample (0.1 ml) was collected and processed for hematocrit as described above.
compound,measurement,setting,value
N.N.O=C([O-])C1(C(=O)[O-])CCC1.[Pt+2] [Carboplatin],body weight pattern compared to non-treated vehicle control animals,"[1]; chemotherapeutic agent alone (FIG. 5, FIG. 7)",pattern of weight loss
same,animals with more than a 10% weight gain at any time during the study,[1]; number of animals of 10,3 of 10
same,animals that ended the study at a body weight below that at the start,[1]; number of animals of 10 per group,7 of 10
same,hematocrit over time,[2]; Carboplatin alone (closed circles in FIG. 2),significant decrease
same,# animals morbid prematurely,"[2]; Cmpd A 60 mg/kg p.o., Carboplatin 120 mg/kg i.p. Q7d",6/10
same,# animals reaching study endpoint,"[2]; Cmpd A 60 mg/kg p.o., Carboplatin 120 mg/kg i.p. Q7d, endpoint tumor volume >= 2 cc",4/10
"O=C(O)CNC(=O)c1nc(Cl)c2ccccc2c1O [Compound A, N—((1-chloro-4-hydroxy-isoquinoline-3-carbonyl)-amino)-acetic acid]",body weight change at end of study,"[1]; mouse, in vivo",overall net weight gain
same,body weights during the time course of the study,"[1]; mouse, in vivo, 60 mg/kg",increased gradually
same,hematocrit in Cisplatin-treated animals,"[3]; 4 days after initiating treatment with Compound A, oral gavage once per day for 5 days (FIG. 1A)",increased hematocrit
same,percent circulating reticulocytes,"[3]; Cisplatin-treated animals, compared to those without Compound A (FIG. 1B)",increased
same,hematocrit levels versus non-treated counterparts,"[3]; Cisplatin-treated rats, day 9 post-treatment (FIG. 1A)",significantly higher
CC(=O)O[C@H]1C(=O)[C@@]2(C)[C@H]([C@H](OC(=O)c3ccccc3)[C@]3(O)C[C@H](OC(=O)[C@H](O)[C@@H](NC(=O)c4ccccc4)c4ccccc4)C(C)=C1C3(C)C)[C@]1(OC(C)=O)CO[C@@H]1C[C@@H]2O [Paclitaxel],animals that ended the study at a body weight below that at the start,"[1]; mouse, in vivo",2 of 10
same,body weight pattern compared to non-treated vehicle control animals,"[1]; mouse, in vivo",pattern of weight loss
